Results on one compound are retold here after US20080227863A1, “Organic Compounds” (Novartis AG, priority 2005, published 2008).

As usually defined, the melting point is the temperature of the solid-liquid transition.

In turn, `N#CC(C#N)(COc1ccccc1Cl)NC(=O)c1ccc(OC(F)(F)F)cc1` [Compound 1.3, N-[2-(2-Chloro-phenoxy)-1,1-dicyano-ethyl]-4-trifluoromethoxy-benzamide] gave a melting point of 154 to 155 °C.
